# Assay results reported in patent US10604476B2, “Fluorinated amide derivatives and their uses as therapeutic agents” (Trillium Therapeutics Inc., priority 2015, dated 2020).
# Key:
# [1] = test system: mEC-HC slice from KA-treated rats; test: Spontaneously bursting hippocampal slice in vitro model; format: cell-based, rat; conditions: 100 μM, FIG. 2
# Source text: An in vitro screen uses the medial entorhinal cortex-hippocampal (mEC-HC) slice obtained from kainic acid (KA)-treated animals to identify compounds that may be effective in pharmacoresistant epilepsy. Systemic KA treatment in rats is an accepted model of temporal lobe epilepsy (TLE), where an initial insult results in status epilepticus and is followed by a sustained latent period that subsequently gives way to the development of spontaneous seizures. […] Moreover, the mEC-HC slices obtained from KA-treated rats are hyperexcitable in normal artificial cerebrospinal fluid (ACSF) solution as early as one week following KA-induced SE. Thus, this test screens investigational compounds for any potential efficacy against pharmacoresistant TLE. […]
# Kainic acid administration/low dose: Animals were treated with Kainic Acid (Tocris, 0222) following a modified protocol described previously (Hellier et al 1998). Seizure activity is scored throughout KA administration using the Racine scale (Racine, 1972). […] Once stage 4-5 seizures are observed, injections cease and the number and stage of seizures observed are recorded on seizure score sheets. The animals are observed and seizures recorded for a minimum of 3.5 h. […]
# [2] = test system: formalin-induced paw licking; test: Mouse formalin test; format: in vivo; conditions: 41 mg/kg i.p.; most pronounced in second (late) phase
# Protocol: The formalin test is performed according to the method of Tjolsen et al. Pain, 1992. 51(1). An injection of 0.5% formalin (Sigma) is made into the planter region of the right hind paw of an adult (26-30 g) male CF-1 mouse. Sub-dermal formalin injection elicits a distinct behavioral profile characterized by the mouse licking the affected paw. The behavior is characteristically biphasic in nature. For example, immediately following the injection the mouse licks the paw intensely for approximately 10 min. This is referred to as phase 1 (or, the acute phase) and is followed by a brief latent period (<5 minutes) where there is little behavioral activity. A more prolonged period of about 20-30 min of activity then ensues, which constitutes phase 2 (or, the inflammatory phase). […] The area under the curve (AUG) is calculated for both the acute and inflammatory phases of the licking response for individual animals in both the test and control groups. The percent of control AUG for drug-treated animal groups is determined using the Graph-Pad Prism Version 3.03. The total AUG for each phase of the test group is also calculated and converted to percentage of total AUG of control for each phase. The average and S.E.M. for both the drug treated and control percentages are calculated and tested for significant difference.
SMILES,network hyperexcitability (spontaneous burst activity and duration) [1],number of paw licks [2]
"C[C@@H](Oc1cc(Cl)cc(C(F)(F)F)c1)C(N)=O [I(D), (2R)-2-[3-chloro-5-(trifluoromethyl)-phenoxy]propanamide]",effectively suppressed,–
"NC(=O)COc1cc(C(F)(F)F)cc(C(F)(F)F)c1 [I(F), 2-[3,5 bis(trifluoromethyl)-phenoxy]acetamide;]",–,significant decrease
